Measured values taken from US8124744B2, “Macrolide derivatives” (Taisho Pharmaceutical Co., Ltd., priority 2006, dated 2012).
Converted amounts (≈) assume the structure as drawn.

Assays:
pro MMP-9 protein = test: Inhibitory activity against proMMP-9 protein production (TNF α-stimulated mouse peritoneal exudate cells, ELISA); type: cell-based, C57BL/6J mice; conditions: relative activity when the value of Comparative Agent 1 (IC50 = 10.04 ± 4.11 μM) is 10, on the increase of pro MMP-9 by TNF α 25 ng/ml, 24 hours, read-out: IC50 (μM)*
Experimental: (§1) To 7- to 9-week male C57BL/6J mice (purchased from CLEA Japan, Inc. or Japan SLC, Inc.), Zymosan A (SIGMA) derived from budding yeasts which is adjusted to be 1 mg/ml in a phosphate buffer solution (PBS, 10010-49, Invitrogen) was administered intraperitoneally at 1 ml per mouse to induce peritonitis. Three days later, filter-sterilized cell recovery buffer (2 mM EDTA, 0.5% bovine serum albumin, PBS, pH 7.4) was administered intraperitoneally at 5 ml per mouse to recover peritoneal exudata cells. The cells went through a cell strainer (70 μm nylon, FALCON) and were then washed twice with a Hanks solution (Invitrogen). The cells were suspended in 10% fetal calf serum-containing Dulbecco's modified Eagle's culture medium (Invitrogen). The suspension was seeded on a plate with 48 wells, after 6 hours, the culture medium was completely exchanged. After culturing for another 18 hours, test compounds were added at 0.02 to 20 μM of the final concentration. After 1 hour from the addition of the compounds, a tumor necrosis factor (TNF) α (R & D Systems) was added at 25 ng/ml of the final concentration, and 24 hours later, the culture supernatant was collected. The amount of pro MMP-9 protein in the supernatant was quantified by an enzyme-linked immunosorbent assay (ELISA) (R & D Systems), IC50 values of the test compounds on the increased amount by TNF α stimuli, were calculated by ORIGIN analysis software (trade name: OriginLab). In addition, minimal inhibitory concentration (MIC) of each test compounds (measured bacterium: Staphylococcus aureus ATCC29213) was measured. As a comparative agent […] A (clarithromycin) was used.

[1] = tested on: Staphylococcus aureus ATCC29213; test: Minimal inhibitory concentration (MIC); type: cell-based
Experimental: as §1

Row | IC50 (pro MMP-9 protein) [µM] | MIC [1] [µg/mL] | SMILES
1 | 1.45 | > 128 | CC[C@H]1OC(=O)[C@H](C)[C@@H](O[C@H]2C[C@@](C)(OC)[C@@H](O)[C@H](C)O2)[C@H](C)[C@@H](O[C@@H]2O[C@H](C)C[C@@H](N(C)Cc3ccccc3)[C@@H]2N(C)C)[C@@](C)(OC)C[C@@H](C)C(=O)[C@H](C)[C@@H](O)[C@]1(C)O [Example 171, 3′-N-demethyl-2′-deoxy-2′-dimethylamino-3′-N-benzyl-6-O-methylerythromycin A]
2 | 2.4 | > 128 | CC[C@H]1OC(=O)[C@H](C)[C@@H](O[C@H]2C[C@@](C)(OC)[C@@H](OC(C)=O)[C@H](C)O2)[C@H](C)[C@@H](O[C@@H]2O[C@H](C)C[C@@H](N(C)S(C)(=O)=O)[C@@H]2N(C)C)[C@@](C)(OC)C[C@@H](C)C(=O)[C@H](C)[C@@H](O)[C@]1(C)O [Example 185, 4″-O-acetyl-3′-N-demethyl-2′-deoxy-2′-dimethylamino-3′-N-methanesulfonyl-6-O-methylerythromycin A]
3 | 0.77 | > 128 | CC[C@H]1OC(=O)[C@H](C)[C@@H](O[C@H]2C[C@@](C)(OC)[C@@H](O)[C@H](C)O2)[C@H](C)[C@@H](O[C@@H]2O[C@H](C)C[C@@H](N3CCOCC3)[C@@H]2N(C)C)[C@@](C)(O)C[C@@H](C)CN(C)[C@H](C)[C@@H](O)[C@]1(C)O [Example 213, 3′-dedimethylamino-2′-deoxy-2′-dimethylamino-3′-(4-morpholino)-9-deoxo-9a-aza-9a-methyl-9a-homoerythromycin A]
4 | 4.01 | > 128 | CC[C@H]1OC(=O)[C@H](C)[C@@H](O[C@H]2C[C@@](C)(OC)[C@@H](O)[C@H](C)O2)[C@H](C)[C@@H](O[C@@H]2O[C@H](C)C[C@@H](N(C)S(C)(=O)=O)[C@@H]2N(C)C)[C@@](C)(OC)C[C@@H](C)C(=O)[C@H](C)[C@@H](O)[C@]1(C)O [Example 186, 3′-N-demethyl-2′-deoxy-2′-dimethylamino-3′-N-methanesulfonyl-6-O-methylerythromycin A]
5 | 4.38 | > 128 | CCO[C@H]1[C@H](O[C@@H]2[C@@H](C)[C@H](O[C@@H]3C[C@@](C)(OC)[C@@H](O)[C@H](C)O3)[C@@H](C)C(=O)O[C@H](CC)[C@@](C)(O)[C@H](O)[C@@H](C)C(=O)[C@H](C)C[C@]2(C)OC)O[C@H](C)C[C@@H]1N(C)C [Example 105, 2′-O-ethyl-6-O-methylerythromycin A]
6 | < 1.04 | > 128 | CC[C@H]1OC(=O)[C@H](C)[C@@H](O[C@H]2C[C@@](C)(OC)[C@@H](O)[C@H](C)O2)[C@H](C)[C@@H](O[C@@H]2O[C@H](C)C[C@H](N(C)CCCOCc3ccccc3)[C@H]2OC)[C@@](C)(OC)C[C@@H](C)C(=O)[C@H](C)[C@@H](O)[C@]1(C)O [Example 129, 3′-N-demethyl-3′-N-(3-benzyloxypropyl)-6,2′-di-O-methylerythromycin A]
7 | 2.46 | > 128 | CC[C@H]1OC(=O)[C@H](C)[C@@H](O[C@H]2C[C@@](C)(OC)[C@@H](O)[C@H](C)O2)[C@H](C)[C@@H](O[C@@H]2O[C@H](C)C[C@@H](N(C)Cc3ccccn3)[C@@H]2N(C)C)[C@@](C)(OC)C[C@@H](C)C(=O)[C@H](C)[C@@H](O)[C@]1(C)O [Example 192, 3′-N-demethyl-2′-deoxy-2′-dimethylamino-3′-N-(2-pyridylmethyl)-6-O-methylerythromycin A]
8 | 1.42 | 128 (≈ 143 µM) | CC[C@H]1OC(=O)[C@H](C)[C@@H](O[C@H]2C[C@@](C)(OC)[C@@H](OC(C)=O)[C@H](C)O2)[C@H](C)[C@@H](O[C@@H]2O[C@H](C)C[C@@H](N(C)Cc3ccccn3)[C@@H]2N(C)C)[C@@](C)(OC)C[C@@H](C)C(=O)[C@H](C)[C@@H](O)[C@]1(C)O [Example 191, 4″-O-acetyl-3′-N-demethyl-2′-deoxy-2′-dimethylamino-3′-N-(2-pyridylmethyl)-6-O-methylerythromycin A]
9 | 4.42 | > 128 | CC[C@H]1OC(=O)[C@H](C)[C@@H](O[C@H]2C[C@@](C)(OC)[C@@H](OC(C)=O)[C@H](C)O2)[C@H](C)[C@@H](O[C@@H]2O[C@H](C)C[C@H](N(C)C)[C@H]2OCCCN2CCOCC2)[C@@](C)(OC)C[C@@H](C)C(=O)[C@H](C)[C@@H](O)[C@]1(C)O [Example 119, 4″-O-acetyl-2′-O-(3-(4-morpholino)propyl)-6-O-methylerythromycin A]
10 | 1.23 | > 128 | CC[C@H]1OC(=O)[C@H](C)[C@@H](O[C@H]2C[C@@](C)(OC)[C@@H](O)[C@H](C)O2)[C@H](C)[C@@H](O[C@@H]2O[C@H](C)C[C@@H](N(C)CCc3ccccc3)[C@@H]2N(C)C)[C@@](C)(OC)C[C@@H](C)C(=O)[C@H](C)[C@@H](O)[C@]1(C)O [Example 194, 3′-N-demethyl-2′-deoxy-2′-dimethylamino-3′-N-(2-phenethyl)-6-O-methylerythromycin A]
11 | 2.79 | > 128 | CC[C@H]1OC(=O)[C@H](C)[C@@H](O[C@H]2C[C@@](C)(OC)[C@@H](OC(C)=O)[C@H](C)O2)[C@H](C)[C@@H](O[C@@H]2O[C@H](C)C[C@H](N(C)C)[C@H]2OCCCN(C)C)[C@@](C)(OC)C[C@@H](C)C(=O)[C@H](C)[C@@H](O)[C@]1(C)O [Example 116, 4″-O-acetyl-2′-O-(3-dimethylaminopropyl)-6-O-methylerythromycin A]
12 | 0.38 | > 64 | CC[C@H]1OC(=O)[C@H](C)[C@@H](O[C@H]2C[C@@](C)(OC)[C@@H](O)[C@H](C)O2)[C@H](C)[C@@H](O[C@@H]2O[C@H](C)C[C@H](N(C)C)[C@H]2OCCCc2ccccc2)[C@@](C)(OC)C[C@@H](C)C(=O)[C@H](C)[C@@H](O)[C@]1(C)O [Example 24, 2′-O-(3-phenylpropyl)-6-O-methylerythromycin A]
13 | 4.45 | > 128 | CC[C@H]1OC(=O)[C@H](C)[C@@H](O[C@H]2C[C@@](C)(OC)[C@@H](O)[C@H](C)O2)[C@H](C)[C@@H](O[C@@H]2O[C@H](C)C[C@@H](N3CC[C@H](O)C3)[C@@H]2N(C)C)[C@@](C)(OC)C[C@@H](C)C(=O)[C@H](C)[C@@H](O)[C@]1(C)O [Example 201, 3′-dedimethylamino-2′-deoxy-2′-dimethylamino-3′-((S)-3-hydroxypyrrolidin-1-yl)-6-O-methylerythromycin A]
14 | 1.78 | > 128 | CC[C@H]1OC(=O)[C@H](C)[C@@H](O[C@H]2C[C@@](C)(OC)[C@@H](OC(C)=O)[C@H](C)O2)[C@H](C)[C@@H](O[C@@H]2O[C@H](C)C[C@@H](N3CCOCC3)[C@@H]2N(C)C)[C@@](C)(OC(C)=O)C[C@@H](C)CN(C)[C@H](C)[C@@H](OC(C)=O)[C@]1(C)O [Example 212, 6,11,4″-O-triacetyl-3′-dedimethylamino-2′-deoxy-2′-dimethylamino-3′-(4-morpholino)-9-deoxo-9a-aza-9a-methyl-9a-homoerythromycin A]
15 | 4.36 | > 128 | CC[C@H]1OC(=O)[C@H](C)[C@@H](O[C@H]2C[C@@](C)(OC)[C@@H](OC(C)=O)[C@H](C)O2)[C@H](C)[C@@H](O[C@@H]2O[C@H](C)C[C@@H](N3CCOCC3)[C@@H]2N(C)C)[C@@](C)(OC)C[C@@H](C)C(=O)[C@H](C)[C@H]2NC(=O)O[C@@]21C [Example 95, 4″-O-acetyl-11-amino-3′-dedimethylamino-11,2′-dideoxy-2′-dimethylamino-3′-(4-morpholino)-6-O-methylerythromycin A 11,12-cyclic carbamate]
16 | 0.83 | > 128 | CC[C@H]1OC(=O)[C@H](C)[C@@H](O)[C@H](C)[C@@H](O[C@@H]2O[C@H](C)C[C@H](N(C)Cc3ccccc3)[C@H]2O)[C@@](C)(O)C[C@@H](C)CN(C)[C@H](C)[C@@H](O)[C@]1(C)O [Example 20, 5-O-(3′-N-demethyl-3′-N-benzyl)desosaminyl-9-deoxo-9a-aza-9a-methyl-9a-homoerythronolide A]
17 | 8.88 | > 128 | CC[C@H]1OC(=O)[C@H](C)[C@@H](O[C@H]2C[C@@](C)(OC)[C@@H](O)[C@H](C)O2)[C@H](C)[C@@H](O[C@@H]2O[C@H](C)C[C@H](N(C)C)[C@H]2OC)[C@@](C)(OC)C[C@@H](C)[C@H](N)[C@H](C)[C@@H](O)[C@]1(C)O [Compound T of Example 142, 9-deoxo-9-(S)-amino-6,2′-di-O-methylerythromycin A]
18 | 1.37 |  | CC[C@H]1OC(=O)[C@H](C)[C@@H](O)[C@H](C)[C@@H](O[C@@H]2O[C@H](C)C[C@H](N(C)Cc3cccc(OC)c3)[C@H]2O)[C@@](C)(OC)C[C@@H](C)C(=O)[C@H](C)[C@H]2NC(=O)O[C@@]21C [Example 65, 11-amino-11-deoxy-5-O-(3′-N-demethyl-3′-N-(3-methoxybenzyl)desosaminyl)-6-O-methylerythronolide A 11,12-cyclic carbamate]
